According to ChEMBL document CHEMBL1201862, “PubChem BioAssay data set” (2004):
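The compound was tested at five concentrations on cells cultured in 96-well plates, with a 48-hour exposure period. GI50: concentration for 50% inhibition of growth.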 Calls of active or inactive are those of the source. Cut-off read from the data, not from the text of the source: active = GI50 up to about 1.1 µM and inactive = higher.

Legend:
Assay in all cases: NCI-60 cell line screen, 48 h
BT-549 = system: BT-549
HCC 2998 = system: HCC 2998
RPMI-8226 = system: RPMI-8226
MOLT-4 = system: MOLT-4
HL-60 = system: HL-60
SK-MEL-2 = system: SK-MEL-2
SK-MEL-5 = system: SK-MEL-5
NCI-H460 = system: NCI-H460
T47D = system: T47D
MDA-N = system: MDA-N
MCF7 = system: MCF7
DU-145 = system: DU-145
OVCAR-4 = system: OVCAR-4
SF-539 = system: SF-539
SW-620 = system: SW-620
SK-MEL-28 = system: SK-MEL-28
CCRF-CEM = system: CCRF-CEM
UACC-62 = system: UACC-62
SK-OV-3 = system: SK-OV-3
M14 = system: M14
NCI-H23 = system: NCI-H23
UO-31 = system: UO-31
OVCAR-5 = system: OVCAR-5
ACHN = system: ACHN
U-251 = system: U-251
SNB-19 = system: SNB-19
NCI-H522 = system: NCI-H522
Hs-578T = system: Hs-578T
K562 = system: K562
UACC-257 = system: UACC-257
COLO 205 = system: COLO 205
SR = system: SR
PC-3 = system: PC-3
CAKI-1 = system: CAKI-1
LOX IMVI = system: LOX IMVI
A549 = system: A549
SF-268 = system: SF-268
HCT-116 = system: HCT-116
HT-29 = system: HT-29
HOP-92 = system: HOP-92
NCI/ADR-RES = system: NCI/ADR-RES
Malme-3M = system: Malme-3M
NCI-H226 = system: NCI-H226
OVCAR-8 = system: OVCAR-8
TK-10 = system: TK-10
HCT-15 = system: HCT-15
A498 = system: A498
OVCAR-3 = system: OVCAR-3
MDA-MB-435 = system: MDA-MB-435
SN12C = system: SN12C
786-0 = system: 786-0
MDA-MB-231 = system: MDA-MB-231
SF-295 = system: SF-295
KM12 = system: KM12
RXF 393 = system: RXF 393
IGROV-1 = system: IGROV-1
SNB-75 = system: SNB-75
EKVX = system: EKVX
HOP-62 = system: HOP-62

Measured: GI50

O=c1[nH]c(=O)n(C2OC(CO)C(O)C(F)C2O)cc1F (stereo not given)
active: MOLT-4 0.0803 µM
inactive: BT-549 > 100 µM | HCC 2998 > 100 µM | RPMI-8226 > 100 µM | HL-60 > 100 µM | SK-MEL-2 > 100 µM | SK-MEL-5 > 100 µM | NCI-H460 > 100 µM | T47D > 100 µM | MDA-N > 100 µM | MCF7 > 100 µM | DU-145 > 100 µM | OVCAR-4 > 100 µM | SF-539 > 100 µM | SW-620 > 100 µM | SK-MEL-28 > 100 µM | CCRF-CEM > 100 µM | UACC-62 > 100 µM | SK-OV-3 > 100 µM | M14 > 100 µM | NCI-H23 > 100 µM | UO-31 > 100 µM | OVCAR-5 > 100 µM | ACHN > 100 µM | U-251 > 100 µM | SNB-19 > 100 µM | NCI-H522 > 100 µM | Hs-578T > 100 µM | K562 > 100 µM | UACC-257 > 100 µM | COLO 205 > 100 µM | SR 25.4 µM | PC-3 > 100 µM | CAKI-1 > 100 µM | LOX IMVI > 100 µM | A549 > 100 µM | SF-268 > 100 µM | HCT-116 > 100 µM | HT-29 > 100 µM | HOP-92 > 100 µM | NCI/ADR-RES > 100 µM | Malme-3M > 100 µM | NCI-H226 > 100 µM | OVCAR-8 > 100 µM | TK-10 > 100 µM | A498 > 100 µM | OVCAR-3 > 100 µM | MDA-MB-435 > 100 µM | SN12C > 100 µM | 786-0 > 100 µM | MDA-MB-231 > 100 µM | SF-295 > 100 µM
> 100 µM: HCT-15

C[C@@H](c1ccccc1)N1CN(C(=O)OCc2ccccc2)C(C)(C)CC1=O
> 100 µM: HCT-15
inactive: BT-549 > 100 µM | HCC 2998 > 100 µM | RPMI-8226 > 100 µM | KM12 > 100 µM | MOLT-4 > 100 µM | HL-60 66.8 µM | SK-MEL-2 > 100 µM | RXF 393 15.5 µM | SK-MEL-5 41.7 µM | NCI-H460 > 100 µM | T47D 50.6 µM | MDA-N > 100 µM | MCF7 > 100 µM | IGROV-1 > 100 µM | DU-145 > 100 µM | OVCAR-4 > 100 µM | SF-539 > 100 µM | SW-620 > 100 µM | SNB-75 > 100 µM | SK-MEL-28 56.9 µM | CCRF-CEM > 100 µM | UACC-62 > 100 µM | SK-OV-3 > 100 µM | M14 > 100 µM | NCI-H23 > 100 µM | OVCAR-5 > 100 µM | ACHN > 100 µM | EKVX > 100 µM | U-251 > 100 µM | SNB-19 > 100 µM | NCI-H522 > 100 µM | Hs-578T > 100 µM | K562 > 100 µM | UACC-257 78.2 µM | COLO 205 > 100 µM | SR 86.3 µM | PC-3 > 100 µM | CAKI-1 > 100 µM | LOX IMVI > 100 µM | A549 > 100 µM | SF-268 > 100 µM | HOP-62 > 100 µM | HCT-116 > 100 µM | HT-29 > 100 µM | HOP-92 > 100 µM | NCI/ADR-RES > 100 µM | Malme-3M > 100 µM | NCI-H226 > 100 µM | OVCAR-8 > 100 µM | TK-10 > 100 µM | OVCAR-3 > 100 µM | MDA-MB-435 > 100 µM | SN12C > 100 µM | 786-0 > 100 µM | MDA-MB-231 > 100 µM | SF-295 > 100 µM
